Biological target: BMAL1 (Homo sapiens, UniProt O00327)
Parameters: PASB domain (residues 338–449); Protein thermal shift (PTS) fragment screen on recombinant human BMAL1(PASB), shift of melting temperature
Details: dTmB; binder

Chain of BMAL1 (O00327 338-449): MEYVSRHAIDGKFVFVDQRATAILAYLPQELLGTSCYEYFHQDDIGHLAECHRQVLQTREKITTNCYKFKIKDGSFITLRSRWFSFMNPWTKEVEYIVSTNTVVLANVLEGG

Row | SMILES | Bmal1(PASB) dTmB [°C]
1 | CNC(=O)c1cnc(C)cn1 [Prestw-Frag-1350, Compound 286] | 0.06
2 | CNCCc1c[nH]c2ccccc12 [Prestw-Frag-1356, Compound 318] | -0.40
3 | O=C1COc2ccccc21 [Prestw-Frag-1361, Compound 165] | -0.13
4 | COc1ccc2c(c1)OCC2=O [Prestw-Frag-1362, Compound 212] | -0.12
5 | OC1(c2ccc(Cl)cc2)CCNCC1 [Prestw-Frag-1365, Compound 373] | -1.00
6 | CCCC(=O)c1ccc(F)cc1 [Prestw-Frag-1368, Compound 311] | -0.19
7 | COc1ccc2cc[nH]c2c1 [Prestw-Frag-1372, Compound 392] | 0.28
8 | Oc1ccc2cc[nH]c2c1 [Prestw-Frag-1374, Compound 33] | 0.97
9 | O=C(OC1CCCCC1)c1ccccc1O [Prestw-Frag-1382, Compound 265] | 0.09
10 | NCC(O)COc1cccc2ccccc12 (centres unmarked) [Prestw-Frag-1389, Compound 450] | 1.58
11 | NS(=O)(=O)c1ccccc1C(F)(F)F [Prestw-Frag-1394, Compound 374] | -0.07
12 | c1cc2c(cc1CN1CCNCC1)OCO2 [Prestw-Frag-1397, Compound 232] | -0.60
13 | c1cnc(N2CCNCC2)nc1 [Prestw-Frag-1398, Compound 399] | -0.21
14 | COC(=O)C(CO)c1ccccc1 (centres unmarked) [Prestw-Frag-1406, Compound 266] | -0.21
15 | Cc1cn[nH]c1C [Prestw-Frag-1408, Compound 109] | -1.01
16 | NNC(=O)c1ccncc1 [Prestw-Frag-1419, Compound 226] | -0.26
17 | NNC(=O)c1ccccc1 [Prestw-Frag-1420, Compound 187] | -0.31
18 | c1cnc2[nH]ncc2c1 [Prestw-Frag-1428, Compound 174] | -0.31

Row | SMILES | Bmal1(PASB) dTmB [°C]
19 | NC(=O)c1ccccc1O [Prestw-Frag-1439, Compound 86] | 0.06
20 | c1ccc(-c2ccccc2-c2nn[nH]n2)cc1 [Prestw-Frag-1441, Compound 357] | -0.44
21 | c1ccc(CC2NCCc3ccccc32)cc1 (centres unmarked) [Prestw-Frag-1444, Compound 267] | -1.30
22 | COc1ccc(CCN(C)C)cc1OC [Prestw-Frag-1445, Compound 247] | -0.12
23 | CNCCc1ccc(OC)c(OC)c1 [Prestw-Frag-1446, Compound 257] | -0.19
24 | CN(C)C(=O)C(c1ccccc1)c1ccccc1 [Prestw-Frag-1453, Compound 166] | -0.94
25 | CCN(CC)Cc1cc(N)ccc1O [Prestw-Frag-1462, Compound 5] | -4.46
26 | Nc1nc2ccc(C(=O)c3ccccc3)cc2[nH]1 [Prestw-Frag-1471, Compound 466] | -1.29
27 | c1ccc(CNc2ccccn2)cc1 [Prestw-Frag-1475, Compound 204] | -1.06
28 | CN(C)CCNCc1ccccc1 [Prestw-Frag-1476, Compound 397] | -0.27
29 | CC(=O)NCCc1c[nH]c2ccccc12 [Prestw-Frag-1478, Compound 417] | -0.27
30 | COc1ccc2[nH]cc(CCN)c2c1 [Prestw-Frag-1480, Compound 3] | 3.24
31 | Nc1c(Cl)ccc2nsnc12 [Prestw-Frag-1492, Compound 2] | -1.34
32 | Cc1cnc(C(=O)O)cn1 [Prestw-Frag-1494, Compound 98] | 0.14
33 | O=C(O)c1cnccn1 [Prestw-Frag-1495, Compound 269] | 0.04
34 | O=C(O)CC[C@H](NC(=O)c1ccccc1)C(=O)O [Prestw-Frag-1499, Compound 195] | 0.09
35 | COc1cc(C)cc(C)c1C [Prestw-Frag-1506, Compound 359] | -0.12

Source: PMC12037410, “Pharmacological targeting of BMAL1 modulates circadian and immune pathways” (Nature Chemical Biology, 2025)
